Entries after “also recorded” stand apart in the source; their conditions may differ. Where two headings read alike, the source gives them in different places.
Columns and labels:
4T1-Luc cells [1] = experiment: cells; assay type: cell-based, murine; conditions: Mus musculus, read-out: IC50 (cytotoxicity)
Description: (§1) Murine breast cancer cell line expressing luciferase (4T1-Luc) and hepatocytes isolated from the normal liver of a 3-month-old mouse (AML12) were purchased from ATCC, (CRL-2539-LUC2 and CRL-2254). The cells were cultivated in RPMI 1640 or DMEM-F12 with 10% FBS, 4.5 g/L glucose, 100 U/mL penicillin, 100 µg/mL streptomycin and 0.25 µg/mL Gibco amphotericin at 37 °C, 5% CO2.
(§2) 4T1-Luc or AML12 cells were seeded in a 96-well plate (1 × 10^4 cells/well) in 200 µL/well of complete RPMI or DMEM-F12 medium and incubated at 37 °C with 5% CO2 for 48 h. Then, the medium was replaced with 100 µL/well RPMI or DMEM-F12 medium in the absence (control) or presence of various amounts of the tested compounds and incubated at 37 °C with 5% CO2 for 24 h; 10 µL/well WST-1 solution (CELLPRO-RO Roche, St. Louis, MO, USA) was added to each well and incubated under culture conditions for 2 h. The absorbance of the samples was measured at 450 nm.

luciferase = luciferase (Photinus pyralis, UniProt P08659); experiment: Control: addition to the luciferin–luciferase mixture; assay type: biochemical; conditions: 200 µM added to the luciferin–luciferase mixture; data are not presented
Chain of luciferase (P08659 whole entry): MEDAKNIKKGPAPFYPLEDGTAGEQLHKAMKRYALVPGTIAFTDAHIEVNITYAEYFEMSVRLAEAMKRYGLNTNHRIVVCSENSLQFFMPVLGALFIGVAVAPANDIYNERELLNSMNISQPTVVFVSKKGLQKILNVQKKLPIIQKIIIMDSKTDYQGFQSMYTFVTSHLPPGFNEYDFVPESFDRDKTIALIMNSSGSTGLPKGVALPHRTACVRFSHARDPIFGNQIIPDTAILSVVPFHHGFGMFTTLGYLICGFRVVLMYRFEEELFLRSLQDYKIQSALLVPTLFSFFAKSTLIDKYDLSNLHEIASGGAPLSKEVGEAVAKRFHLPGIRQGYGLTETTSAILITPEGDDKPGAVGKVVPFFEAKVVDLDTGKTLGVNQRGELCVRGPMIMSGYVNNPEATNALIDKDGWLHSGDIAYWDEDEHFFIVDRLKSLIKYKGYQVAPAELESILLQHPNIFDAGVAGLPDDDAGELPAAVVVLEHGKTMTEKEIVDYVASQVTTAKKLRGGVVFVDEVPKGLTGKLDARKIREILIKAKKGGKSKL

[2] = assay type: physicochemical; conditions: octanol/distilled water (pH 5.5), mean ± StD
Description: Lipophilicity of the obtained 2,4-DNP derivatives was measured by octanol–water equilibrium method. Before the experiment, we mixed octanol and water in a flask, shook it vigorously, and then waited for the two phases separation. After reaching of equilibrium, the two phases are mutually saturated with one another. Next, 0.5 mg of each test compound was dissolved in 1 mL of octanol phase, and then 1 mL of distillated water phase was added (pH 5.5) and properly stirred for 1 min three times. The mixture was incubated under vigorous stirring for 1 h. Next, the mixture was centrifugated to separate octanol–water phases. The concentration of the compound was determined in octanol and water using HPLC method. The octanol–water partition coefficient was estimated as follows:(1) LogP=Log[C]octanol/[C]water
Concentration of 2,4-DNP and its esters was measured using high-performance liquid chromatography (HPLC) (Knauer Smart line, Berlin, Germany) with UV-detector and a reversed-phase shim-pack 100-5-C18 column (Kromasil, […], particle size 5 μm). The mobile phase was a mixture of acetonitrile and 0.1% citric acid water solution (60/40, v/v). The mobile phase flow-rate was 0.8 mL/min, the injection volume was […], and the detection wavelength was set at 275 nm. Chromatograms were analyzed using ChromGate version 3.3.2 software (Berlin, Germany). The retention time is 4.5 min for 2,4-DNP and 6.5 min for esters.

in vitro = assay type: cell-based, mouse; conditions: mouse; AML12, 24 h incubation, WST-1, free compounds in 1% DMSO; read-out: IC50 (cytotoxicity)
Description: as §1, §2

[3] = pH 7.4
Description: Procedure: All samples were dispersed in 10 mM PBS (pH = 7. 4). Then the aliquots were incubated at a room tempera-
ture and at 65 °C for 1 h. After that we made several TLC for each sample representing heated and non-heated sub-

AML12 cells = experiment: in vitro; assay type: cell-based, mouse; conditions: AML12, 24 h incubation, WST-1, free compounds in 1% DMSO; read-out: IC50 (cytotoxicity)
Description: as §1, §2

4T1-Luc cells [4] = assay type: cell-based, murine; conditions: 200 µM, 1% DMSO; for ATP synthesis inhibition (decrease of luminescence): free compounds, 2 h and 4 h
Description: ATP synthesis in real time in vitro was monitored by modified luciferin–luciferase assay using 4T1-Luc cells expressing luciferase. Briefly, 4T1-Luc cells were seeded in black 96-well plates (Greiner, France) (1 × 10^4 cells/well) 48 h before the experiment. Cell medium was replaced with the mixtures (150 µL/well) of D-luciferin (150 µg/mL, saturating concentration) alone (control) and with examined substance (200 µM of free 2,4-DNP or its derivatives or their liposomal forms) in RPMI 1640 medium (10% FBS, 4.5 g/L glucose, 100 U/mL penicillin, 100 µg/mL streptomycin и 0.25 µg/mL Gibco amphotericin), plate was put into the Luminometer chamber (EnSpire multimode plate reader, Perkin Elmer, USA), and kinetic of luciferin–luciferase reaction was detected at 37 °C (flashes/time 0.1 s). 2,4-DNP esters were dissolved in DMSO before the use. The total concentration of DMSO in final solution per well was 1%.
The inhibition effect was expressed as (3) Decrease of luminescence=[RLU]max−[RLU]t/[RLU]max×100%, where [RLU]max—relative luminescence units at the maximum of the kinetic profile; [RLU]t—relative luminescence units at certain time point.

Row | SMILES | LogPoct [2] | ATP synthesis inhibition (decrease of luminescence) (4T1-Luc cells [4]) | ATP level after free carboxylic acids (4T1-Luc cells [4]) | further results
1 | O=[N+]([O-])c1ccc(O)c([N+](=O)[O-])c1 [2,4-DNP, 2,4-dinitrophenol] | 1.61 ± 0.30 |  |  | IC50 (4T1-Luc cells [1]; 24 h): ~400 µM; Luciferase activity (luciferase): did not influence the luciferase activity; IC50 at 24 h (in vitro): 500 to 600 µM
2 | CCC(=O)Oc1ccc([N+](=O)[O-])cc1[N+](=O)[O-] [2,4-DNP-C3, 2,4-Dinitrophenol Propionic Acid Ester] | 1.91 ± 0.24 | higher inhibition effects in comparison to the free 2,4-DNP |  | Ester stability (hydrolysis) [3]: most unstable ester; IC50 (AML12 cells): ~200 µM
3 | CCCCCC(=O)Oc1ccc([N+](=O)[O-])cc1[N+](=O)[O-] [2,4-DNP-C6, 2,4-Dinitrophenol Caproic Acid Ester] | 3.07 ± 0.31 | higher inhibition effects in comparison to the free 2,4-DNP; also recorded: sustained inhibition of ATP synthesis |  | IC50 (AML12 cells): ~200 µM
4 | CCCCCCCCCCCCCCCC(=O)Oc1ccc([N+](=O)[O-])cc1[N+](=O)[O-] [2,4-DNP-C16, 2,4-DNP Palmitic Acid Ester] | 5.18 ± 0.79 | neglectable decrease in the ATP level |  | IC50 (4T1-Luc cells [1]; 24 h incubation, WST-1, free compounds in 1% DMSO): 100 to 150 µM; IC50 (in vitro): ~200 µM
5 | CCCCCC(=O)O [caproic acid, Hexanoic acid, reference compound] |  |  | did not show an increase in the ATP level | 
6 | CCCCCCCCCCCCCCCC(=O)O [palmitic acid, Palmitic acid, reference compound] |  |  | did not show an increase in the ATP level | 
7 | CCC(=O)O [propionic acid, Propionic acid, reference compound] |  |  | did not show an increase in the ATP level | 

Reference: PMC9268429, “Liposomal Form of 2,4-Dinitrophenol Lipophilic Derivatives as a Promising Therapeutic Agent for ATP Synthesis Inhibition” (Nanomaterials, 2022)
